Assay results as given in EPA's CvTdb concentration-time database.

Key:
Mouse [1] = assay: concentration in plasma after dosing; settings: 2 h; dosed: 2-Hydroxy-4-methoxybenzophenone; 50 mg/kg; iv; Male; B6C3F1
Mouse [2] = assay: concentration in plasma after dosing; settings: 0.25 h; dosed: 2-Hydroxy-4-methoxybenzophenone; 50 mg/kg; iv; Female; B6C3F1
Rat [3] = assay: concentration in plasma after dosing; settings: 0.25 h; dosed: 2-Hydroxy-4-methoxybenzophenone; 500 mg/kg; oral; Male; F344
Rat [4] = assay: concentration in plasma after dosing; settings: dosed: 2-Hydroxy-4-methoxybenzophenone, 500 mg/kg, oral, Female, F344
Mouse [5] = assay: concentration in plasma after dosing; settings: 2 h; dosed: 2-Hydroxy-4-methoxybenzophenone; 50 mg/kg; iv; Female; B6C3F1
Mouse [6] = assay: concentration in plasma after dosing; settings: 10 min; dosed: 2-Hydroxy-4-methoxybenzophenone; 250 mg/kg; oral; Female; B6C3F1
Rat [7] = assay: concentration in plasma after dosing; settings: dosed: 2-Hydroxy-4-methoxybenzophenone, 8 mg/kg, iv, Female, F344
Rat [8] = assay: concentration in plasma after dosing; settings: dosed: 2-Hydroxy-4-methoxybenzophenone, 250 mg/kg, oral, Female, F344
Mouse [9] = assay: concentration in plasma after dosing; settings: 0.25 h; dosed: 2-Hydroxy-4-methoxybenzophenone; 250 mg/kg; oral; Female; B6C3F1
Rat [10] = assay: concentration in plasma after dosing; settings: 0.5 h; dosed: Nitrite; 80 mg/kg; oral; Female; F344
Rat [11] = assay: concentration in plasma after dosing; settings: 5 min; dosed: Nitrite; 80 mg/kg; oral; Female; F344
Rat [12] = assay: concentration in plasma after dosing; settings: dosed: Nitrite, 80 mg/kg, oral, Female, F344
Rat [13] = assay: concentration in plasma after dosing; settings: 5 min; dosed: Nitrite; 20 mg/kg; iv; Male; F344
Rat [14] = assay: concentration in plasma after dosing; settings: dosed: Nitrite, 20 mg/kg, iv, Male, F344
Rat [15] = assay: concentration in plasma after dosing; settings: 2 min; dosed: Nitrite; 80 mg/kg; oral; Female; F344
Rat [16] = assay: concentration in plasma after dosing; settings: dosed: Nitrite, 80 mg/kg, oral, Female, F344; remark: listed apart in the source
Rat [17] = assay: concentration in brain after dosing; settings: 3 h; dosed: Perfluorooctanoic acid; 12 mg/kg; oral; Male; Harlan Sprague Dawley
Rat [18] = assay: concentration in brain after dosing; settings: 6 h; dosed: Perfluorooctanoic acid; 12 mg/kg; oral; Male; Harlan Sprague Dawley
Rat [19] = assay: concentration in kidney after dosing; settings: 0.5 h; dosed: Fluorotelomer alcohol 8+2; 80 mg/kg; oral; Female; Harlan Sprague Dawley
Rat [20] = assay: concentration in liver after dosing; settings: 1 h; dosed: Fluorotelomer alcohol 8+2; 24 mg/kg; oral; Male; Harlan Sprague Dawley
Rat [21] = assay: concentration in liver after dosing; settings: 3 h; dosed: Perfluorooctanoic acid; 12 mg/kg; oral; Male; Harlan Sprague Dawley
Rat [22] = assay: concentration in kidney after dosing; settings: 24 h; dosed: Perfluorooctanoic acid; 12 mg/kg; oral; Male; Harlan Sprague Dawley
Rat [23] = assay: concentration in plasma after dosing; settings: dosed: 678-39-7, 12 mg/kg, iv, Male, F344
Rat [24] = assay: concentration in kidney after dosing; settings: 6 h; dosed: Perfluorooctanoic acid; 12 mg/kg; oral; Male; Harlan Sprague Dawley
Rat [25] = assay: concentration in liver after dosing; settings: 12 h; dosed: Fluorotelomer alcohol 8+2; 80 mg/kg; oral; Female; Harlan Sprague Dawley
Rat [26] = assay: concentration in plasma after dosing; settings: 1.5 h; dosed: Potassium Perfluorobutane Sulfonate; 4 mg/kg; iv; Male; F344
Rat [27] = assay: concentration in brain after dosing; settings: 3 h; dosed: Potassium Perfluorobutane Sulfonate; 20 mg/kg; oral; Male; Harlan Sprague Dawley
Rat [28] = assay: concentration in liver after dosing; settings: 12 h; dosed: Potassium Perfluorobutane Sulfonate; 20 mg/kg; oral; Male; Harlan Sprague Dawley
Rat [29] = assay: concentration in kidney after dosing; settings: 6 h; dosed: Potassium Perfluorobutane Sulfonate; 20 mg/kg; oral; Female; Harlan Sprague Dawley
Rat [30] = assay: concentration in kidney after dosing; settings: 1 h; dosed: Potassium Perfluorobutane Sulfonate; 20 mg/kg; oral; Male; Harlan Sprague Dawley
Rat [31] = assay: concentration in kidney after dosing; settings: 3 h; dosed: Potassium Perfluorobutane Sulfonate; 20 mg/kg; oral; Female; Harlan Sprague Dawley
rat [32] = assay: concentration in blood after dosing (ugEq/g tissue); settings: dosed: benzo[a]pyrene, iv, male, Wistar

COc1ccc(C(=O)c2ccccc2)c(O)c1 [2-Hydroxy-4-methoxybenzophenone]
Settings	concentration in plasma [ng/mL]
Mouse [1]	236
Mouse [2]	4680
Mouse [5]	317
Mouse [6]	117
Mouse [9]	266
Rat [3]	403

concentration in plasma [ng/mL]
Settings	0.25 h	4 h	10 h	10 min
Rat [4]	–	–	31.5	935
Rat [7]	120	75.6	–	–
Rat [8]	453	19	–	–

O=N[O-] [Nitrite]
Settings	concentration in plasma [ng/mL]
Rat [10]	69300
Rat [11]	9600
Rat [13]	8200
Rat [15]	2900

Settings	concentration in plasma [ng/mL]
Rat [12], 0.5 h	11900
Rat [12], 4 h	2400
Rat [14], 0.75 h	4400
Rat [14], 2 min	9000
Rat [16], 1 h	21600
Rat [16], 2 h	13000

O=C(O)C(F)(F)C(F)(F)C(F)(F)C(F)(F)C(F)(F)C(F)(F)C(F)(F)F [Perfluorooctanoic acid]
Settings	concentration in brain [ng/g]	concentration in kidney [ng/g]	concentration in liver [ng/g]
Rat [17]	1330	–	–
Rat [18]	1290	–	–
Rat [19]	–	284	–
Rat [20]	–	–	535
Rat [21]	–	–	50700
Rat [22]	–	28700	–
Rat [24]	–	37600	–
Rat [25]	–	–	498

Rat [23]
Settings	concentration in plasma [ng/mL]
0.75 h	295
12 h	505

O=S(=O)([O-])C(F)(F)C(F)(F)C(F)(F)C(F)(F)F.[K+] [Potassium Perfluorobutane Sulfonate]
Settings	concentration in brain [ng/g]	concentration in kidney [ng/g]	concentration in liver [ng/g]	concentration in plasma [ng/mL]
Rat [26]	–	–	–	2130
Rat [27]	754	–	–	–
Rat [28]	–	–	10100	–
Rat [29]	–	3360	–	–
Rat [30]	–	28600	–	–
Rat [31]	–	18600	–	–

c1ccc2c(c1)cc1ccc3cccc4ccc2c1c34 [benzo[a]pyrene]
concentration in blood, rat [32]
Settings	2 mg/kg	6 mg/kg	15 mg/kg
0.5 h	0.66	2.42	13.8
0.75 h	0.47	1.99	10.6
1 h	0.42	1.72	8.52
1.5 h	0.17	0.5	7.16
2 h	0.35	0.14	3.93
3 h	–	0.03	1.86
4 h	–	–	0.19
5 h	–	0.01	0.09
5 min	2.64	4.66	28.8
6 h	–	–	0.05
8 h	–	–	0.02
10 min	1.85	5	29.8
20 min	1.2	3.78	15.9
24 h	–	–	0.015
32 h	–	–	0.002
